The source of these data is US9067923B2, “Substituted quinoxalines” (Kyowa Hakko Kirin Co., Ltd., priority 2011, dated 2015).

One may read the inhibition as the change of the read-out against control, counted positive when it falls. A higher inhibition goes with strong suppression.

For this assay, the system named is production of kynurenine in human gastric cancer cell line KATO-III. As to the kind of experiment: Inhibitory activity on the production of kynurenine (IFN-γ-treated KATO-III cells). In kind it is cell-based. To be noted: 10 μmol/L test compound, KATO-III cells treated with IFN-γ, 96 hours. How it is done:
This assay was performed by a modification of the method described in J. Biol. Chem., vol. 263, pp. 2041-2048 ([…]). For culture of the human gastric cancer cell line […], RPMI 1640 (GIBCO, 11875) supplemented with 10 vol % FBS (GIBCO, 10091-148, lot. 665285) was used. One μL of a test substance in a DMSO solution was diluted with 199 μL of the culture medium and placed in wells of a 384-well plate (10 μL/well). Next, IFN-γ (Sigma, I-3265) was added to a fresh culture medium to a concentration of 31.25 ng/mL, and KATO-III cells were suspended at 50,000 cells/mL in the culture medium. Forty μL of the suspension was added to each well (2,000 cells/well) and cultured under 5% CO2 at 37° C. for 96 hours. The final concentration of DMSO was limited to 0.1 vol % or less so that DMSO itself may not affect the kynurenine concentration measured in this assay. After the culture, 10 μL of a 30 w/v % aqueous trichloroacetic acid solution was added to each well, and incubation was performed at 65° C. for 30 minutes. The plate was centrifruged at 2,500×g for 5 minutes and 15 μL of the supernatant in each well was transferred into another 384-well plate. To the transferred supernatant, 15 μL of a 2 w/v % solution of p-dimethylaminobenzaldehyde in acetic acid was added, incubation was performed at 65° C. for 20 minutes and the absorbance was measured at 480 nm.
Sample: the absorbance value of the well to which DMSO solution containing a test substance was added and in which the cells were treated with IFN-γ.
Blank: the absorbance value of the well to which DMSO not containing a test substance was added and in which the cells were treated with IFN-γ.
Control: the absorbance value of the well to which DMSO not containing a test substance was added and in which the cells were not treated with IFN-γ.
The inhibition % of each test compound was calculated by formula A1.
In this assay, the expression of IDO in KATO-III cells is induced by IFN-γ treatment, and kynurenine in the culture medium is quantified. The kynurenine concentration in a culture medium is known to increase in proportion to the enzymatic activity of intracellular IDO (for example, J. Biol. Chem., vol. 263, pp. 2041-2048 (1988)). […] The production of kynurenine is known to be inhibited by IDO inhibitors (for example, J. Clin. Invest., vol. 117, No. 5, pp. 1147-1154 ([…])), and thus it is speculated that compounds (I) also have an inhibitory effect on IDO.
`CCCS(=O)(=O)Nc1nc2ccccc2nc1OC(C1CCN(c2nccs2)CC1)C(F)(F)F` (centres unmarked) [Compound 18, N-(3-(2,2,2-trifluoro-1-(1-(thiazol-2-yl)piperidin-4-yl)ethoxy)quinoxalin-2-yl)propane-1-sulfonamide] gave an inhibition at 10 µM of no less than 80%. To `CCCS(=O)(=O)Nc1nc2ccccc2nc1OC(C1CCN(c2cccnc2)CC1)C(F)(F)F` (centres unmarked) [Compound 21, N-(3-(2,2,2-trifluoro-1-(1-(pyridin-3-yl)piperidin-4-yl)ethoxy)quinoxalin-2-yl)propane-1-sulfonamide] belongs no less than 80%; to `CCCS(=O)(=O)Nc1nc2ccccc2nc1OC(C1CCN(c2ncccc2C(N)=O)CC1)C(F)(F)F` (centres unmarked) [Compound 10, 2-(4-(2,2,2-trifluoro-1-(3-(propylsulfonamido)quinoxalin-2-yloxy)ethyl)piperidin-1-yl)nicotinamide], no less than 80%; to `CCCS(=O)(=O)Nc1nc2ccccc2nc1OC(C1CCN(c2cc(C#N)ccn2)CC1)C(F)(F)F` (centres unmarked) [Compound 6, N-(3-(1-(1-(4-cyanopyridin-2-yl)piperidin-4-yl)-2,2,2-trifluoroethoxy)quinoxalin-2-yl)propane-1-sulfonamide], no less than 80%.

On to `CCCS(=O)(=O)Nc1nc2ccccc2nc1OC(C1CCN(c2cnccn2)CC1)C(F)(F)F` (centres unmarked) [Compound 13, N-(3-(2,2,2-trifluoro-1-(1-(pyrazin-2-yl)piperidin-4-yl)ethoxy)quinoxalin-2-yl)propane-1-sulfonamide], for which the inhibition at 10 µM was no less than 80%.

As to `CCCS(=O)(=O)Nc1nc2ccccc2nc1OC(C1CCN(c2ccccn2)CC1)C(F)(F)F` (centres unmarked) [Compound 20, N-(3-(2,2,2-trifluoro-1-(1-(pyridin-2-yl)piperidin-4-yl)ethoxy)quinoxalin-2-yl)propane-1-sulfonamide], the inhibition at 10 µM is no less than 80%. Regarding `CCCS(=O)(=O)Nc1nc2ccccc2nc1OC(C1CCN(c2cncnc2)CC1)C(F)(F)F` (centres unmarked) [Compound 14, N-(3-(2,2,2-trifluoro-1-(1-(pyrimidin-5-yl)piperidin-4-yl)ethoxy)quinoxalin-2-yl)propane-1-sulfonamide], the inhibition at 10 µM is no less than 80%. The value for `CCCS(=O)(=O)Nc1nc2ccccc2nc1OC(C1CCN(c2nnnn2C)CC1)C(F)(F)F` (centres unmarked) [Compound 12, N-(3-(2,2,2-trifluoro-1-(1-(1-methyl-1H-tetrazol-5-yl)piperidin-4-yl)ethoxy)quinoxalin-2-yl)propane-1-sulfonamide] was no less than 80%.

The compound `CCCS(=O)(=O)Nc1nc2ccccc2nc1OC(C1CCN(c2ccc(C(=O)N(C)C)cn2)CC1)C(F)(F)F` (centres unmarked) [Compound 8, N,N-dimethyl-6-(4-(2,2,2-trifluoro-1-(3-(propylsulfonamido)quinoxalin-2-yloxy)ethyl)piperidin-1-yl)nicotinamide] showed an inhibition at 10 µM of no less than 80%.

As for `CCCS(=O)(=O)Nc1nc2ccccc2nc1OC(C1CCN(c2cncc(C#N)c2)CC1)C(F)(F)F` (centres unmarked) [Compound 7, N-(3-(1-(1-(5-cyanopyridin-3-yl)piperidin-4-yl)-2,2,2-trifluoroethoxy)quinoxalin-2-yl)propane-1-sulfonamide], the inhibition at 10 µM was no less than 80%. To `CCCS(=O)(=O)Nc1nc2ccccc2nc1O[C@H](C1CCN(c2ccc(C(N)=O)nc2)CC1)C(F)(F)F` [Compound 34, (R)-5-(4-(2,2,2-trifluoro-1-(3-(propylsulfonamido)quinoxalin-2-yloxy)ethyl)piperidin-1-yl)picolinamide] belongs no less than 80%; to `CCCS(=O)(=O)Nc1nc2ccccc2nc1OC(C1CCN(c2ncccc2C#N)CC1)C(F)(F)F` (centres unmarked) [Compound 9, N-(3-(1-(1-(3-cyanopyridin-2-yl)piperidin-4-yl)-2,2,2-trifluoroethoxy)quinoxalin-2-yl)propane-1-sulfonamide], no less than 80%. To `CCCS(=O)(=O)Nc1nc2ccccc2nc1OC(C1CCN(c2ncccc2C(=O)N(C)C)CC1)C(F)(F)F` (centres unmarked) [Compound 2, N,N-dimethyl-2-(4-(2,2,2-trifluoro-1-(3-(propylsulfonamido)quinoxalin-2-yloxy)ethyl)piperidin-1-yl)nicotinamide] belongs no less than 80%; to `CCCS(=O)(=O)Nc1nc2ccccc2nc1OC(C1CCN(c2ccc(C(N)=O)cn2)CC1)C(F)(F)F` (centres unmarked) [Compound 19, 6-(4-(2,2,2-trifluoro-1-(3-(propylsulfonamido)quinoxalin-2-yloxy)ethyl)piperidin-1-yl)nicotinamide], no less than 80%.

Consider `CCCS(=O)(=O)Nc1nc2ccccc2nc1OC(C1CCN(c2ccc(C#N)cn2)CC1)C(F)(F)F` (centres unmarked) [Compound 15, N-(3-(1-(1-(5-cyanopyridin-2-yl)piperidin-4-yl)-2,2,2-trifluoroethoxy)quinoxalin-2-yl)propane-1-sulfonamide], for which the inhibition at 10 µM is no less than 80%. In turn, `CCCS(=O)(=O)Nc1nc2ccccc2nc1OC(C1CCN(c2ccnc(C#N)c2)CC1)C(F)(F)F` (centres unmarked) [Compound 16, N-(3-(1-(1-(2-cyanopyridin-4-yl)piperidin-4-yl)-2,2,2-trifluoroethoxy)quinoxalin-2-yl)propane-1-sulfonamide] displayed an inhibition at 10 µM of no less than 80%. To `CCCS(=O)(=O)Nc1nc2ccccc2nc1OC(C1CCN(c2cc(C(=O)N(C)C)ccn2)CC1)C(F)(F)F` (centres unmarked) [Compound 1, N,N-dimethyl-2-(4-(2,2,2-trifluoro-1-(3-(propylsulfonamido)quinoxalin-2-yloxy)ethyl)piperidin-1-yl)isonicotinamide] belongs no less than 80%; to `CCCS(=O)(=O)Nc1nc2ccccc2nc1O[C@H](c1cnc(C(C)=O)s1)C(F)(F)F` [Compound 32, (S)-N-(3-(1-(2-acetylthiazol-5-yl)-2,2,2-trifluoroethoxy)quinoxalin-2-yl)propane-1-sulfonamide], no less than 80%. To `CCCS(=O)(=O)Nc1nc2ccccc2nc1OC(C1CCN(c2ccc(C(N)=O)nc2)CC1)C(F)(F)F` (centres unmarked) [Compound 5, 5-(4-(2,2,2-trifluoro-1-(3-(propylsulfonamido)quinoxalin-2-yloxy)ethyl)piperidin-1-yl)picolinamide] belongs no less than 80%. The compound `COCCS(=O)(=O)Nc1nc2ccccc2nc1OC(c1ccc(-c2noc(C3CC3)n2)nc1)C(F)(F)F` (centres unmarked) [Compound 23, N-(3-(1-(6-(5-cyclopropyl-1,2,4-oxadiazol-3-yl)pyridin-3-yl)-2,2,2-trifluoroethoxy)quinoxalin-2-yl)-2-methoxyethanesulfonamide] came in with an inhibition at 10 µM of no less than 80%. To `CCCS(=O)(=O)Nc1nc2ccccc2nc1OC(C1CCN(c2ccncc2C#N)CC1)C(F)(F)F` (centres unmarked) [Compound 17, N-(3-(1-(1-(3-cyanopyridin-4-yl)piperidin-4-yl)-2,2,2-trifluoroethoxy)quinoxalin-2-yl)propane-1-sulfonamide] belongs no less than 80%; to `CCCS(=O)(=O)Nc1nc2ccccc2nc1OC(c1ccc(-c2noc(COC)n2)nc1)C(F)(F)F` (centres unmarked) [Compound 26, N-(3-(2,2,2-trifluoro-1-(6-(5-(methoxymethyl)-1,2,4-oxadiazol-3-yl)pyridin-3-yl)ethoxy)quinoxalin-2-yl)propane-1-sulfonamide], no less than 80%; to `CCCS(=O)(=O)Nc1nc2ccccc2nc1OC(C1CCN(c2cccc(C(=O)N(C)C)n2)CC1)C(F)(F)F` (centres unmarked) [Compound 3, N,N-dimethyl-6-(4-(2,2,2-trifluoro-1-(3-(propylsulfonamido)quinoxalin-2-yloxy)ethyl)piperidin-1-yl)picolinamide], no less than 80%.
